The record followed here is patent US6969719B2, “Polycyclic guanine phosphodiesterase V inhibitors” (Schering Corporation, priority 2001, dated 2005).

Each structure is given as a SMILES string. Values joined by “and” are separate entries in the source; they are usually repeats but may differ in a detail not shown here. Equal entries are not always repeated.

The target of the first assay is PDE V (Homo sapiens, UniProt O76074). Description: PDE V isoenzyme inhibition (IC50). To be noted: concentration required to provide 50% inhibition of PDE V. Format: biochemical. From the text:
The compounds of the invention can be useful for inhibiting PDE V isoenzymes. Isoenzyme activities and isoenzyme selectivities for particular compounds can be evaluated in a number of ways.
As usually defined, the IC50 is the concentration at which inhibition is half-maximal. Higher therefore signals weaker potency in that assay. Regarding `CCN1C(=O)c2c(nc(NC3CCOCC3)n2Cc2ccc(O)c(Br)c2)N2CCN=C12` [Compound 1], the 50% inhibitory concentration (IC50) was ≤ 10 nM. On the same count and under the same terms, next, `CCN1C(=O)c2c(nc(NC3CCOCC3)n2Cc2ccc(O)c(Cl)c2)N2CCN=C12` [Compound 2]: < 8 nM; `CCN1C(=O)c2c(nc(Br)n2Cc2cc(Br)c3c(c2)CCO3)N2C[C@@H](Cc3ccccc3)N=C12` [Compound 3]: ≤ 10 nM. On the same count and under the same terms, to `CCN1C(=O)c2c(nc(C(=O)OC)n2Cc2cc(Cl)c3c(c2)CCO3)N2C[C@@H](Cc3ccccc3)N=C12` [Compound 4] belongs ≤ 6 nM; to `CCN1C(=O)c2c(nc(NC3CCCCC3)n2Cc2ccc(O)c(Cl)c2)N2C1=N[C@@H]1CCC[C@@H]12` [Compound 5], ≤ 6 nM; to `CCN1C(=O)c2c(ncn2Cc2cc(Cl)c3c(c2)CCO3)N2C[C@@H](Cc3ccccc3)N=C12` [Compound 6], ≤ 5 nM. Still for that read-out and setting: to `CCN1C(=O)c2nc(C#Cc3ccccc3)n(Cc3ccc(OC(C)=O)cc3)c2N2CC3(CCCC3)N=C12` [Compound 7] belongs ≤ 5 nM; to `CCN1C(=O)c2c(nc(C(N)=O)n2Cc2cc(Br)c3c(c2)CCO3)N2C[C@@H](Cc3ccccc3)N=C12` [Compound 8], ≤ 5 nM; to `CCN1C(=O)c2c(nc(NC3CCCCC3)n2Cc2ccc(O)c(Br)c2)N2C[C@@H](Cc3ccccc3)N=C12` [Compound 9], ≤ 5 nM. Turning to `CCN1C(=O)c2c(nc(C(N)=O)n2Cc2cc(Cl)c3c(c2)CCO3)N2C[C@@H](Cc3ccccc3)N=C12` [Compound 10], the half-inhibitory concentration (IC50) was ≤ 5 nM. On the same count and under the same terms, next, `CCN1C(=O)c2c(nc(C=NO)n2Cc2ccc(O)c(Cl)c2)N2C[C@@H](Cc3ccccc3)N=C12` [Compound 11]: ≤ 5 nM.

Consider `CCN1C(=O)c2c(nc(NC3CCCCC3)n2Cc2ccc(O)c(Br)c2)N2C1=N[C@@H]1CCC[C@@H]12` [Compound 12], for which the IC50 was ≤ 5 nM. Regarding `CCN1C(=O)c2c(nc(OCc3ccccc3)n2Cc2ccc(O)c(Cl)c2)N2C[C@@H](Cc3ccccc3)N=C12` [Compound 13], the 50% inhibitory concentration (IC50) was ≤ 5 nM. For the compound `CCN1C(=O)c2c(nc(NC3CCCCC3)n2Cc2ccc(OC)c(Br)c2)N2CCN=C12` [Compound 14], the IC50 is ≤ 5 nM.

As to `CCN1C(=O)c2c(nc(Br)n2Cc2cc(Cl)c3c(c2)CCO3)N2C[C@@H](Cc3ccccc3)N=C12` [Compound 15], the IC50 was ≤ 5 nM. On to `CCN1C(=O)c2c(nc(NC3CCOCC3)n2Cc2ccc(OC)c(Cl)c2)N2CCN=C12` [Compound 16], for which the IC50 was ≤ 10 nM and ≤ 5 nM and ≤ 6 nM and ~1.5 nM. On the same count and under the same terms, to `CCN1C(=O)c2c(nc(NC3CCCCC3)n2Cc2ccc(OC)c(Br)c2)N2C1=N[C@@H]1CCC[C@@H]12` [Compound 17] belongs ≤ 5 nM; to `CCN1C(=O)c2c(nc(NC3CCOCC3)n2Cc2ccc(OC)c(Br)c2)N2CCN=C12` [Compound 18], ≤ 5 nM. Still for that read-out and setting: to `CCN1C(=O)c2c(nc(C#Cc3ccccc3)n2Cc2ccc(O)c(Cl)c2)N2C[C@@H](Cc3ccccc3)N=C12` [Compound 19] belongs ≤ 5 nM. The same measure, in the same setting: to `CCN1C(=O)c2c(nc(NC3CCOCC3)n2Cc2ccc(OC)c(Br)c2)N2CCCN=C12` [Compound 20] belongs ≤ 5 nM; to `CCN1C(=O)c2c(nc(NC3CCOCC3)n2Cc2ccc(OC)c(Cl)c2)N2CCCN=C12` [Compound 21], ≤ 10 nM. On to `CCN1C(=O)c2nc(C#Cc3ccccc3)n(Cc3ccc(O)cc3)c2N2CC3(CCCC3)N=C12` [Compound 22], for which the IC50 was ≤ 5 nM. On the same count and under the same terms, next, `CCN1C(=O)c2c(nc(NC3CCOCC3)n2Cc2ccc(O)c(C)c2)N2CCN=C12` [Compound 30]: ~52 nM; `CCN1C(=O)c2c(nc(OC)n2Cc2ccc(OC)c(C#N)c2)N2C[C@@H](Cc3ccccc3)N=C12` [Compound 34]: ≤ 10 nM and ~10 nM; `CCN1C(=O)c2c(nc(NC3CCOCC3)n2Cc2cc(Cl)c3c(c2)CCO3)N2CCN=C12` [Compound 35]: ~18 nM.

As for `CCN1C(=O)c2c(nc(NC3CCOCC3)n2Cc2cc(Br)c3c(c2)CCO3)N2CCN=C12` [Compound 36], the 50% inhibitory concentration (IC50) was ~18 nM. Regarding `CCN1C(=O)c2c(nc(NC3CCCCC3)n2Cc2ccc(OC)c(Cl)c2)N2CCN=C12` [Compound 42], the half-maximal inhibitory concentration (IC50) is ≤ 5 nM. On the same count and under the same terms, to `CCN1C(=O)c2c(nc(NC3CCCC3)n2Cc2ccc(OC)c(Cl)c2)N2CCN=C12` [Compound 43] belongs ≤ 5 nM; to `CCN1C(=O)c2c(nc(C#Cc3ccccc3)n2Cc2cc(Cl)c(OC)c(Cl)c2)N2CC3(CCCC3)N=C12` [Compound 44], ≤ 5 nM. On the same count and under the same terms, next, `CCOc1nc2c(n1Cc1ccc(O)c(Br)c1)C(=O)N(CC)C1=N[C@H](Cc3ccccc3F)CN12` [Compound 54]: ≤ 5 nM; `CCN1C(=O)c2c(nc(N[C@@H]3CCC[C@H]3O)n2Cc2ccc(OC)c(Br)c2)N2C1=NCC2C` (stereo partly drawn) [Compound 56]: ≤ 5 nM.

As for `CCN1C(=O)c2c(nc(NC3CCSCC3)n2Cc2ccc(OC)c(Cl)c2)N2CCN=C12` [Compound 57], the IC50 is ≤ 10 nM.

Consider `CCN1C(=O)c2c(nc(NC3CCSCC3)n2Cc2ccc(OC)c(Br)c2)N2CCN=C12` [Compound 58], for which the IC50 was ≤ 5 nM. For the compound `CCN1C(=O)c2c(nc(N[C@@H]3CC[C@H](O)C3)n2Cc2ccc(OC)c(Br)c2)N2CCN=C12` [Compound 59], the IC50 is ≤ 10 nM.

The assay is the same for the next values; noted with them: enzyme selectivity, PDE V relative to PDE VI.
Consider `CCN1C(=O)c2c(nc(NC3CCOCC3)n2Cc2ccc(O)c(Cl)c2)N2CCN=C12` [Compound 2], for which the “ratio of PDE VI IC50/PDE V IC50” value was > 600. For the compound `CCN1C(=O)c2c(nc(NC3CCOCC3)n2Cc2ccc(O)c(C)c2)N2CCN=C12` [Compound 30], the “ratio of PDE VI IC50/PDE V IC50” value is > 190.
